# Source: patent publication US9040523B2, “Antifungal 5,6-dihydro-4H-pyrrolo[1,2-α][1,4]-benzodiazepines and 6H-pyrrolo[1,2-α][1,4]benzodiazepines substituted with benzene derivatives” (JANSSEN PHARMACEUTICA NV, priority 2010, dated 2015)
# Like-named read-outs stand apart in the source and are kept apart here.
# Legend:
# [1] = system: Trichophyton rubrum B68183; experiment: Antifungal activity in vitro (resazurin susceptibility screen), Inf. C; format: cell-based
# Outline: (§1)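 Inoculum: 10^3 cfu/well from cryostocks diluted 1/1000 immediately prior to use. Drug plates were pre-spotted serial dilutions stored dark at 4 °C, ≤2 wk. Controls: fungus without antifungal (100%) and RPMI-MOPS blank (0%).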
# [2] = Liver metabolic stability assay, hLM; format: in vitro ADME, human; conditions: human liver microsomes, 1 mg protein/ml, 5 μM test compound, 15 min, 37 °C
# Method: (§2) Liver preparations (microsomal fractions) were obtained from BD Gentest (San Jose, Calif., US). Metabolic stability was assessed using the following assay conditions. […] The mixture was pre-incubated at 37° C. for 5 min and the enzymatic reaction was started by addition of 5 μM test compound. After 0 (control) and 15 minutes (min), the reactions were terminated by addition of […] (500 μl). The precipitated material was removed by centrifugation at 1200 g for 10 min. The supernatant was analysed by LC-MS/MS on a ThermoFinnigan LCQ Deca XP ion-trap mass spectrometer equipped with an atmospheric pressure chemical ionisation source. Calculation of %-compound remaining was as described by Kantharaj et al. 2003 ((Kantharaj E., Tuytelaars A, Proost P E A, Ongel Z, van […] (2003). Simultaneous measurement of drug metabolic stability and identification of metabolites using ion-trap mass spectrometry.
# [3] = system: Candida parapsilosis B66126; experiment: Antifungal activity in vitro (resazurin susceptibility screen), Inf. D; format: cell-based
# Outline: (§3)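 Each well was inoculated with 10^3 cfu of fungus onto dried, pre-spotted compound serial dilutions in RPMI-MOPS medium, with fungal growth read by resazurin. Growth was referenced to drug-free culture (100%) and medium-only (0%) controls on each plate.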
# [4] = system: Trichophyton mentagrophytes B70554; experiment: Antifungal activity in vitro (resazurin susceptibility screen), Inf. G; format: cell-based; conditions: for IC50: Trichophyton mentagrophytes
# Outline: as §3
# [5] = Liver metabolic stability assay, mLM; format: in vitro ADME; conditions: mouse liver microsomes, 1 mg protein/ml, 5 μM test compound, 15 min, 37 °C
# Method: as §2
# [6] = system: Aspergillus fumigatus B42928; experiment: Antifungal activity in vitro (resazurin susceptibility screen), Inf. E; format: cell-based
# Outline: as §1
# [7] = system: Sporothrix schenkii B62482; experiment: Antifungal activity in vitro (resazurin susceptibility screen), Inf. A; format: cell-based; conditions: for IC50: Sporothrix
# Outline: as §1
# [8] = system: Cryptococcus neoformans B66663; experiment: Antifungal activity in vitro (resazurin susceptibility screen), Inf. F; format: cell-based; conditions: for IC50: Cryptococcus neoformans
# Outline: as §1
# Microsporum canis B68128 = experiment: Antifungal activity in vitro (resazurin susceptibility screen), Inf. B; format: cell-based
# Outline: as §3
# [9] = Liver metabolic stability assay, gpLM; format: in vitro ADME, guinea pig
# Method: as §2
# CYP3A4 = CYP3A4 (Homo sapiens, UniProt P08684); experiment: Cytochrome P450 inhibition, Protocol A, cDNA expressed proteins, fluorogenic substrates; format: in vitro ADME; conditions: % inhibition at 10 μM, cDNA expressed protein
# CYP3A4, sequence (P08684 whole entry): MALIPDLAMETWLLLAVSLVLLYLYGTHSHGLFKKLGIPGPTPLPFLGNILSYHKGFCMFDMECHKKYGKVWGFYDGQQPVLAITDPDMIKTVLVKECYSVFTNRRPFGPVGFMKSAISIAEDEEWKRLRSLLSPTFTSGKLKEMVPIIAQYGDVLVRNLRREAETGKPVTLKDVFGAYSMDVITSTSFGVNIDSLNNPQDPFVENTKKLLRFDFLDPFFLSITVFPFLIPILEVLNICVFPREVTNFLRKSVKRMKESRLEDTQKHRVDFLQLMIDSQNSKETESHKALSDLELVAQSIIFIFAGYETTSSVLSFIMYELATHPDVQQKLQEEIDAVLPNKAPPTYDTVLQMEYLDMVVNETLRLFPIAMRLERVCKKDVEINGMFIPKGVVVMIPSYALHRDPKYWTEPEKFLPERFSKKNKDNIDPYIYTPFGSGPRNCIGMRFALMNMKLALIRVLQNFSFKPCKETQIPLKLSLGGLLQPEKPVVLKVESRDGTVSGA
# Method: (§4) All fluorogenic based assays were performed in Black Costar 96-well plates according to Crespi et al 1997 with minor modifications (Crespi C L, Miller V P & Penman B W (1997). Microtiter plate assays for inhibition of human, drug-metabolizing cytochromes P450. Anal. Biochem. Vol 248, 1898-1900). Assay conditions are outlined in Table 5a. For cytochrome P450 3A4, three different fluorogenic substrates were used. Each reaction mixture consisted of the appropriate concentration of enzyme, NADPH-generating system (“NADPH” means β-nicotinamide adenine dinucleotide phosphate, reduced), substrate in sodium/potassium buffer (pH 7.4). For each cytochrome P450 batch Michealis-Menten kinetics were determined using 11 concentrations.
# (§5) Thereafter, further dilutions were made in acetonitrile. […] The compounds were serially diluted to give final concentrations ranging from 1 nM to 10 μM. The reaction mixtures, whereby 1 μL of buffer was replaced by compound solution, were pre-warmed for 5 min at 37° C. and the reaction was initiated by the addition of β-nicotinamide adenine dinucleotide phosphate (NADP+). Reactions were terminated by addition of stopping reagent and the fluorescence was measured using a Fluoroscan (Labsystems, Brussel, Belgium).
# (§6) In Table 5a, the following abbreviations were used: 3-cyano-7-ethocycoumarin (CEC), 7-methoxy-4-trifluoromethylcoumarin (MFC), 3-[2-(N,N-diethyl-N-methylamino)ethyl]-7-methoxy-4-methylcoumarin (AMMC), 7-benzyloxy-trifluoromethyl coumarin (BFC), 7-benzyloxyquinoline (BQ) and dibenzyl fluorescein (DBF).
# CYP2C9 = CYP2C9 (Homo sapiens, UniProt P11712); experiment: Cytochrome P450 inhibition, Protocol A, cDNA expressed proteins, fluorogenic substrate; format: in vitro ADME; conditions: % inhibition at 10 μM; substrate MFC; cDNA expressed protein
# CYP2C9, sequence (P11712 whole entry): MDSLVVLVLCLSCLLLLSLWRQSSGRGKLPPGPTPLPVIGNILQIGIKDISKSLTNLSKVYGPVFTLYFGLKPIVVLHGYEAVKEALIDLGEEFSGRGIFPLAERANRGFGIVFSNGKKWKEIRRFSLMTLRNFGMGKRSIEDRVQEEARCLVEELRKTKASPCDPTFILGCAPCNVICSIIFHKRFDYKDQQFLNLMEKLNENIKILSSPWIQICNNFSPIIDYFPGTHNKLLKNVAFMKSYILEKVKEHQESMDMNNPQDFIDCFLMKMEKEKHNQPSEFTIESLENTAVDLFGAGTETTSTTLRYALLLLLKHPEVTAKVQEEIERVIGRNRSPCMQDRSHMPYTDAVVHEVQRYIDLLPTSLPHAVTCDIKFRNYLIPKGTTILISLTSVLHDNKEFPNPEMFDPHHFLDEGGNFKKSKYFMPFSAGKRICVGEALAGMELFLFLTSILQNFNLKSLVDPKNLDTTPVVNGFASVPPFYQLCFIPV
# Method: as §4, §5, §6
# CYP2D6 = CYP2D6 (Homo sapiens, UniProt P10635); experiment: as above; format: in vitro ADME; conditions: % inhibition at 10 μM; substrate AMMC; cDNA expressed protein
# CYP2D6, sequence (P10635 whole entry): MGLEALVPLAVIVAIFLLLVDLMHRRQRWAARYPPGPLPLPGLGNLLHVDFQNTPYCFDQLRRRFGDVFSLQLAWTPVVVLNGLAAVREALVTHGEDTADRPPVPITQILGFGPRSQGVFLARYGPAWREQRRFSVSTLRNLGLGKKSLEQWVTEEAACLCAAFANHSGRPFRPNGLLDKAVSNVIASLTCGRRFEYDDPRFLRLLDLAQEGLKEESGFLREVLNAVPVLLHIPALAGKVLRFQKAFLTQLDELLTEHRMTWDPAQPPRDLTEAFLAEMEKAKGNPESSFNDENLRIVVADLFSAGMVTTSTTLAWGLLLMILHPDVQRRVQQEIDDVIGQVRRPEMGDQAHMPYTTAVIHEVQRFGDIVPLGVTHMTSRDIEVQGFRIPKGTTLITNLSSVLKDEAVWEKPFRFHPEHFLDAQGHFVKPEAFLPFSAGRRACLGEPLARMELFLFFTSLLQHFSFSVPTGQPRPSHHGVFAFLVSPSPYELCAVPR
# Method: as §4, §5, §6
# CYP1A2 = target: T1, CYP1A2 (Homo sapiens, UniProt P05177); experiment: as above; format: in vitro ADME; conditions: % inhibition at 10 μM; substrate CEC; cDNA expressed protein
# T1 sequence (P05177 1-516): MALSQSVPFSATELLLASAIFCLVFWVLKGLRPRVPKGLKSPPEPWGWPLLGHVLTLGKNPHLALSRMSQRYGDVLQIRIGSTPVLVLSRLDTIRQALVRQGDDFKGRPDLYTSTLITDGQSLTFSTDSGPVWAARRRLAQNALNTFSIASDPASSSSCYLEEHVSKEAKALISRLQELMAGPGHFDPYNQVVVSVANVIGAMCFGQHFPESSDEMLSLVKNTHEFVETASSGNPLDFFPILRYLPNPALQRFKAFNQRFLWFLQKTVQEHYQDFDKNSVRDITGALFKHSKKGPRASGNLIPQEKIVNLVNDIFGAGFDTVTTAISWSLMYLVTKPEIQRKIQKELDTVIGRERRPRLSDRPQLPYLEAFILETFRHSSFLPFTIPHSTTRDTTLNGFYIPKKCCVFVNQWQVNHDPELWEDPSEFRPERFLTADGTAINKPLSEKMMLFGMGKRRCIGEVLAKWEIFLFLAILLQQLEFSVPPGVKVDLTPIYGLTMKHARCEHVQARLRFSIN
# Method: as §4, §5, §6
# Cytochrome P450 2C9 = Cytochrome P450 2C9 (Homo sapiens, UniProt P11712); experiment: Human liver microsomal cytochrome P450 cocktail inhibition assay, Protocol C; conditions: 2C9 Tolbut pIC50, human liver microsomes 0.2 mg/ml; probe tolbutamide 100 microM
# Cytochrome P450 2C9, sequence (P11712 whole entry): as the sequence (P11712 whole entry) above
# Method: (§7) Probe substrates and final assay concentrations with the appropriate internal standard are outlined in Table 6a.
# (§8) Assays were performed in 0.1 M phosphate buffer (pH 7.4), containing 0.2 mg/ml human liver microsomes (BD Gentest) and a probe substrate mix consisting of: phenacetin, tolbutamide, S-mephenyloin, dextromethorphan, amodiaquine and midazolam (Table 6a) and a range of test compound concentrations (0 to 30 micromolar) in a total volume of 100 microliters. After a 10 min pre-incubation at 37° C., the reaction was started with addition of NADPH at a final concentration of 1.0 mM. […] The samples are centrifuged for 10 min at 4° C. at 4000 rpm and 60 microliters supernatant is diluted with 180 microliters water. Each sample is injected onto a UPLC/MS system for the simultaneous measurement of the probe substrate metabolites and their associated deuterated internal standards. Percentage inhibition is calculated according to: %-inhibition=(1−Ri/R)*100, whereby Ri and R are the metabolite to internal standard peak area ratios in the presence and absence of inhibitor respectively.
# (§9) Percentage inhibition data are plotted against the Log transformed test compound concentration and after curve fitting the IC50-value is determined.
# Cytochrome P450 1A2 = target: T2, Cytochrome P450 1A2 (Homo sapiens, UniProt P05177); experiment: as above
# T2 sequence (P05177 1-516): T1 sequence (P05177 1-516)
# Method: as §7, §8, §9
# Cytochrome P450 2C19 = Cytochrome P450 2C19 (Homo sapiens, UniProt P33261); experiment: as above; conditions: 2C19_S-Meph pIC50, human liver microsomes 0.2 mg/ml; probe S-mephenytoin 30 microM
# Cytochrome P450 2C19, sequence (P33261 whole entry): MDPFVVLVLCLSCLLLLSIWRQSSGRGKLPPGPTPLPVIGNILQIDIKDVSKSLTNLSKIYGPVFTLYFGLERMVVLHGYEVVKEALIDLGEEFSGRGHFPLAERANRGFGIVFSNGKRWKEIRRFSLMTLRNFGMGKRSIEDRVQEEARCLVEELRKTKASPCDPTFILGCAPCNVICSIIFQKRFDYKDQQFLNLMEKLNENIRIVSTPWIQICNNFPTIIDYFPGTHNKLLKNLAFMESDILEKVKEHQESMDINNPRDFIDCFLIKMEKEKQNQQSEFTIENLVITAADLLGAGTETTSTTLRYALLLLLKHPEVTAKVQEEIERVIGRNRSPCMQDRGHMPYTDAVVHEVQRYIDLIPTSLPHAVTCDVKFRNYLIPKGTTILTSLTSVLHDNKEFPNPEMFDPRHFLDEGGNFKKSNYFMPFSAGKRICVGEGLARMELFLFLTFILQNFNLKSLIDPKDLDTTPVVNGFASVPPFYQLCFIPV
# Method: as §7, §8, §9
# Cytochrome P450 2D6 = Cytochrome P450 2D6 (Homo sapiens, UniProt P10635); experiment: as above; conditions: 2D6_Dextro pIC50, human liver microsomes 0.2 mg/ml; probe dextromethorphan 3 microM
# Cytochrome P450 2D6, sequence (P10635 whole entry): as the sequence (P10635 whole entry) above
# Method: as §7, §8, §9
# Cytochrome P450 2C8 = target: T3, Cytochrome P450 2C8 (Homo sapiens, UniProt P10632); experiment: as above; format: in vitro ADME; conditions: human liver microsomes 0.2 mg/ml; probe amodiaquine 2 microM; read-out: 2C8_Amod pIC50 (converted)
# T3 construct: tissue BD Gentest; host or cells: human liver microsomes
# T3 sequence (P10632 1-490): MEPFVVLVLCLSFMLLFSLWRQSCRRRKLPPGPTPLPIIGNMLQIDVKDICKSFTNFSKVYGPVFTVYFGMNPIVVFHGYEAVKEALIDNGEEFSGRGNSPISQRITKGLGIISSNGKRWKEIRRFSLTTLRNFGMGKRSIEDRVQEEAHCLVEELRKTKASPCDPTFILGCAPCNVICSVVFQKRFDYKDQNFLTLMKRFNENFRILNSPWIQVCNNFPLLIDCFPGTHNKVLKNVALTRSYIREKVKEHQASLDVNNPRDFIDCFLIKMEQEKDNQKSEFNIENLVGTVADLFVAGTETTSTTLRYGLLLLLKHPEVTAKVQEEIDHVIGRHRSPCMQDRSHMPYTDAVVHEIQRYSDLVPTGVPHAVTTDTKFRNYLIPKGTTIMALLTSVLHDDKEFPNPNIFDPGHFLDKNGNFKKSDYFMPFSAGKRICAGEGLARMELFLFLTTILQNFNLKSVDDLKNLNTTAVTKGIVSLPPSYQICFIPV
# Method: as §7, §8, §9
# [10] = guinea pig microsomes, 1 mg protein/ml, 5 μM test compound, 15 min, 37 °C
compound,measurement,setting,value
"CC(O)c1ccc(C2NCc3c(Cl)cccc3-n3cccc32)cc1 (stereo not drawn) [Compound 1, 4-(7-chloro-5,6-dihydro-4H-pyrrolo[1,2-a][1,4]benzodiazepin-4-yl)-alpha-methyl-benzenemethanol]",IC50,"[1]; Trichophyton rubrum, B68183, read-out: Inf. C pIC50 (converted)",3160 nM
same,%-compound metabolised_Met_hLM,[2],43%
same,melting point,,118.5 to 121.2 °C
same,IC50,"[3]; Lodderomyces parapsilosis, B66126, read-out: Inf. D pIC50 (converted)",> 63.1 µM
same,IC50,"[4]; B70554, read-out: Inf. G pIC50 (converted)",12.6 µM
same,%-compound metabolised Met_mLM,[5],51%
same,IC50,"[6]; Aspergillus fumigatus, B42928, read-out: Inf. E pIC50 (converted)",> 63100 nM
same,IC50,"[7]; B62482, read-out: Inf. A pIC50 (converted)",> 63.1 µM
same,IC50,"[8]; B66663, read-out: Inf. F pIC50 (converted)",63.1 µM
same,IC50,"Microsporum canis B68128; Microsporum canis, B68128, read-out: Inf. B pIC50 (converted)",3.16 µM
same,%-compound metabolised Met_gpLM,"[9]; guinea pig, microsomes, 0.25 h, 5 μM, pH 7.4",86%
"CC(=O)c1ccc(C2NCc3c(Cl)cccc3-n3cccc32)cc1.Cl (stereo not shown) [Compound 5, 1-[4-(7-chloro-5,6-dihydro-4H-pyrrolo[1,2-a][1,4]benzodiazepin-4-yl)phenyl]-ethanone .HCl]",IC50,"[1]; Trichophyton rubrum B68183, 27 °C, 7 days, resa time 24 hours, read-out: Inf. C pIC50 (converted)",501 nM
same,%-compound metabolised_Met_hLM,[2],59%
same,IC50,"[4]; B70554, Trichophyton mentagrophytes B70554, 27 °C, 7 days, resa time 24 hours, read-out: Inf. G pIC50 (converted)",0.631 µM
same,%-compound metabolised Met_mLM,[5],72%
same,IC50,"[6]; Aspergillus fumigatus B42928, 27 °C, 48 hours, resa time 17 hours, read-out: Inf. E pIC50 (converted)",2000 nM
same,IC50,"[7]; B62482, Sporothrix schenkii B62482, 27 °C, 4 days, resa time 24 hours, highest in-test concentration 64 μM, read-out: Inf. A pIC50 (converted)",39.8 µM
same,IC50,"[8]; B66663, Cryptococcus neoformans B66663, 37 °C, 24 hours, resa time 4 hours, read-out: Inf. F pIC50 (converted)",25.1 µM
same,%-compound metabolised Met_gpLM,[9]; [10],88%
"CC(=O)c1ccc(C2=NCc3c(ccc(Cl)c3Cl)-n3cccc32)cc1.Cl [Compound 21, 1-[4-(7,8-dichloro-6H-pyrrolo[1,2-a][1,4]benzodiazepin-4-yl)phenyl]-ethanone .HCl]",Inf. C pIC50,"[1]; Trichophyton rubrum B68183, 27 °C, 7 days, resa time 24 hours",<4.2
same,%-compound metabolised_Met_hLM,[2],17%
same,Inf. D pIC50,"[3]; Candida parapsilosis B66126, 37 °C, 24 hours, resa time 4 hours",<4.2
same,Inf. G pIC50,"[4]; Trichophyton mentagrophytes B70554, 27 °C, 7 days, resa time 24 hours",<4.2
same,%-compound metabolised Met_mLM,[5],24%
same,hCYP3A4_BFC_Pct_Inh,CYP3A4; substrate BFC,0%
same,hCYP3A4_BQ_Pct_Inh,CYP3A4; substrate BQ,26%
same,hCYP3A4_DBF_Pct_Inh,CYP3A4; substrate DBF,26%
same,Inf. E pIC50,"[6]; Aspergillus fumigatus B42928, 27 °C, 48 hours, resa time 17 hours",<4.2
same,Inf. A pIC50,"[7]; Sporothrix schenkii B62482, 27 °C, 4 days, resa time 24 hours, highest in-test concentration 64 μM",<4.2
same,hCYP2C9_MFC_Pct_Inh,CYP2C9,54%
same,hCYP2D6_AMMC_Pct_Inh,CYP2D6,39%
same,hCYP1A2_CEC_Pct_Inh,CYP1A2,27%
same,Inf. F pIC50,"[8]; Cryptococcus neoformans B66663, 37 °C, 24 hours, resa time 4 hours",<4.2
same,Inf. B pIC50,"Microsporum canis B68128; Microsporum canis B68128, 27 °C, 9 days, resa time 24 hours",<4.2
same,%-compound metabolised Met_gpLM,[9]; [10],64%
CC(=O)c1ccc(C2NCc3ccc(Cl)cc3-n3cccc32)cc1 (stereo not shown) [drawing 101],IC50,Cytochrome P450 2C9,6.31 µM
same,IC50,Cytochrome P450 1A2,> 10 µM
same,IC50,Cytochrome P450 2C19,3.16 µM
same,IC50,Cytochrome P450 2D6,7.94 µM
same,IC50,Cytochrome P450 2C8,7.94 µM
